We go through 1 sequence from paper PMC11121495, “Blap-6, a Novel Antifungal Peptide from the Chinese Medicinal Beetle Blaps rhynchopetera against Cryptococcus neoformans” (International Journal of Molecular Sciences, 2024).

One assay concerns C. neoformans. Description: microbe, parasite or virus in culture. The format is cell-based, Cryptococcus neoformans (ATCC 32045). The text has this:
(§1) These standard strains of Escherichia coli (E. coli, ATCC 8739), Staphylococcus aureus (S. aureus, ATCC 6538), Pseudomonas aeruginosa (P. aeruginosa, ATCC 27853), Acinetobacter baumannii (A. baumannii, ATCC 1968), Candida albicans (ATCC 10231), and the clinical strain of Methicillin-resistant Staphylococcus aureus (MRSA, MRSA-Z) were obtained from Kunming Medical University. The standard strain of C. neoformans (ATCC 32045) was purchased from Shanghai Yingxin Laboratory Co., Ltd. (CAS NO. YXJ50058). Different strains of E. coli, S. aureus, MRSA, P. aeruginosa, and A. baumannii were cultured with shaking at 37 °C in Luria–Bertani (LB) medium. C. neoformans was cultured at 35 °C in Sabouraud Dextrose Agar (SDA) medium according to the manufacturer’s instructions.
(§2) According to Clinical and Laboratory Standards Institute (CLSI) protocols, the minimum inhibitory concentration (MIC) is the minimum drug concentration at which antibiotics inhibit the growth and reproduction of strains. The different strains were grown in their corresponding media at 35 °C or 37 °C until they entered the exponential growth phase. Fluconazole and amphotericin B were used as positive controls, and sterile 0.9% NaCl was used as a negative control. The peptides were diluted to various concentrations in sterile saline. According to 1 OD = 1 × 10^9 CFU/mL, the above bacterial solution was diluted to 2 × 10^5 CFU/mL with the corresponding medium. In advance, 100 μL of normal saline was added to a sterile 96-well plate, and 200 μL of the sample to be tested was added to the first well. The sample to be tested was subjected to double gradient dilution, and then 100 μL of bacterial solution with a concentration of 2 × 10^5 was added to each well. It was cultured at 35 °C or 37 °C for different times. The light absorption value of the bacterial solution at 600 nm was detected by a microplate reader (Epoch Etock, Biotek, Winooski, VT, USA), and the average concentration of the samples in the pores and adjacent pores that could not detect microbial growth was used as the MIC value.

Assay [1] has as its system C. neoformans ATCC 32045. Description: Reactive oxygen species detection, H2DCFDA. Particulars: 1 × MIC, 8 × MIC, 32 × MIC, 30 min, 35 °C; H2DCFDA 10 μM, 488/525 nm. Format: cell-based, Cryptococcus neoformans. On the procedure:
2′,7′-Dichlorofluorescin diacetate (H2DCFDA) is a cell-permeable probe for detecting intracellular ROS [77]. […] The different concentrations of blap-6 (1 × MIC, 8 × MIC, and 32 × MIC) were incubated with the diluted fungal solution at 35 °C for 30 min, and 0.1 mM H2O2 was used as a positive control. The negative control group was treated with normal saline and incubated at 37 °C for 30 min. Centrifuged at 8000 rpm and 4 °C for 5 min, discard the supernatant, leaving the cell precipitate. The H2DCFDA dye (Boer, Shanghai, China) was dissolved in DMSO and diluted with normal saline containing 1% DMSO to a final concentration of 10 μM. And added 1 mL of H2DCFDA (10 μM) working solution to each tube and incubated at 35 °C for 30 min. And then precipitated the pellets, discarded the supernatant, and paid attention not to suck out the fungi. […] The excitation/wavelength emission was set at 488/525 nm, and three replicates were set in the experiment.

Assay [2] has as its system C. neoformans ATCC 32045 pre-formed biofilm. Description: Biofilm eradication (crystal violet). The note with it: 1 × MIC, 48 h pre-formed biofilm, 48 h treatment, A600. Format: cell-based, Cryptococcus neoformans. The protocol:
The single colony of C. neoformans ATCC 32045 was picked and cultured at 180 rpm and 37 °C. After washing with normal saline three times and being resuspended, the concentration of the fungal solution was adjusted to 1 × 10^6 CFU/mL and then added to a 96-well plate. Each well was incubated at 37 °C for 48 h. The fungal solution was discarded and washed three times with PBS for 1 min each time. The sample to be tested was diluted with normal saline to 0.5×, 1×, 2×, 4× and 8 × MIC, and 200 μL was added to the 96-well plate, respectively. Each concentration was set to three replicate wells, and the negative control group was added with the same volume of sterile normal saline. In the positive control group, 10 μM fluconazole and 10 μM amphotericin B were added and incubated at 37 °C for 48 h. After that, the supernatant was discarded and washed three times with sterile PBS for 1 min each time. And then, 99% methanol was added and fixed for 5 min. Methanol was removed and dried under the ultra-clean bench. After staining with 100 μL 0.1% crystal violet for 5 min, wash the plate with PBS, dry, and add 100 μL 95% ethanol. The absorbance at 600 nm was detected by a microplate reader.

Assay [3] has as its system C. neoformans ATCC 32045. In words: Fungal-killing kinetics. The format is cell-based, Cryptococcus neoformans. Particulars: 10 × MIC; 1 × 10^6 CFU/mL, SDB, 37 °C, colony count. The protocol:
The single colony of C. neoformans ATCC 32045 was selected and cultured at 180 rpm and 37 °C, washed three times with normal saline, and then resuspended, and the fungal solution was diluted to 1 × 10^6 CFU/mL with SDB medium. The positive control was fluconazole, and the negative control was normal saline. […] The fungal liquid after adding the sample was quickly put into the 37 °C constant temperature incubator, and the shaking culture was carried out at 180 rpm. […] The plate was placed in a constant temperature incubator for inverted culture for 72 h at 37 °C, and then the single colony on the plate was counted.

A further assay concerns MRSA. In words: microbe, parasite or virus in culture. Format: cell-based.
Excerpt: as §1, §2

In assay [4] the test system is C. neoformans ATCC 32045 biofilm. Description: Biofilm inhibition (crystal violet). The format is cell-based, Cryptococcus neoformans. Particulars: 1 × MIC, 48 h, 37 °C, A600, dose-dependent. On the procedure:
The single colony of C. neoformans ATCC 32045 was selected and cultured at 180 rpm and 37 °C. The physiological saline was washed three times and then re-suspended. The fungal concentration was adjusted to 1 × 10^6 CFU/mL, and then 100 μL of the fungal solution was added to each hole in the 96-well plate. The samples to be tested were diluted with sterile saline to 0.5×, 1×, 2×, 4×, and 8 × MIC, and 100 μL was added to the 96-well plate and mixed well. Three replicate wells were set for each concentration. The negative control group was added to the same volume of sterile saline. The positive control group was added with 10 μM fluconazole and amphotericin B, respectively, and the above group was incubated in a 37 °C incubator for 48 h. After that, the supernatant was discarded and washed with sterile PBS three times, 1 min each time. And then, 99% methanol was added and fixed for 5 min. After staining with 100 μL 0.1% crystal violet for 5 min, the plate was washed with PBS, and 100 μL 95% ethanol was added. The absorbance at 600 nm was detected by a microplate reader.

The test system of a further assay is E. coli. In words: microbe, parasite or virus in culture. The format is cell-based, Escherichia coli (ATCC 8739).
Excerpt: as §1, §2

The subject of a further assay is C. albicans. Description: microbe, parasite or virus in culture. Format: cell-based, Candida albicans (ATCC 10231).
Excerpt: as §1, §2

Where no end group is shown, it is not given here.

Turning to KRCRFRIYRWGFPRRRF [blap-6], the MIC turned out to be 0.81 µM in the assay on C. neoformans, 4.89 µM against MRSA, 9.77 µM in the assay with E. coli and 1.22 µM in the assay with C. albicans. The “production of reactive oxygen species (ROS)” value in the assay on C. neoformans ATCC 32045 [1] is recorded as “concentration-dependent increase”. Moreover, the “eradication of pre-formed biofilm” value in assay [2] was “ability to remove pre-formed C. neoformans biofilm”. Besides, in the assay with C. neoformans ATCC 32045 [3], the “time within which all the fungi were killed” value is reported as ≤ 30 min. In assay [4], the “inhibition of biofilm formation” value is “significantly inhibited”.
